Data on 34 molecules can be found in patent US7381705B2, “Inhibitors of hepatitis C virus” (The Administrators Of The Tulane Educational Fund, priority 2004, dated 2008).

Like-named read-outs stand apart in the source and are kept apart here. Ends that are not written are not given here. Peptide text beside a SMILES is read from it.

The subject of the experiment is HCV pseudotype (HIV core proteins, HCV E1 and E2 of strain H77). The note with it: for Percent inhibition: 25 μM; for Inhibition of HCV pseudotype infectivity (in words): summary of Tables 7 and 8.
Where [1] appears, read: HCV H77 1a E2 peptides at ~25 μM, Table 7, virus alone 448,123.
The mark [2] stands for this setting: HCV J4 1b E2 peptides at ~25 μM, Table 8, controls as in Table 7.

As for “YLYGVGSSIASWAIKWEY [compound 45, YLYGVGSSIASWAIKWEY]”, the Percent inhibition is given as 94.5% and the “Inhibition of HCV pseudotype infectivity (in words)” value (shortened to “Inhibition … (in words)”) is recorded as “inhibitory”. For the same molecule, the Luciferase units under setting [1] is given as 24,703 luciferase units (lumens).
LFLLLADARVCSCLWMML [compound 48]: the Percent inhibition stood at 35.1%. For the same molecule, under setting [1], the Luciferase units is on record as 290,786 luciferase units (lumens).
Consider “VGLLTPGAKQNIQLINTN [peptide 4, VGLLTPGAKQNIQLINTN]”, for which the Percent inhibition turned out to be 97.6% and the “Inhibition … (in words)” value is “inhibitory”. Also, the Luciferase units under setting [1] was 10,620 luciferase units (lumens).
For the molecule RCGSGPWITPRCMVDYPY [compound 30], the Percent inhibition was −46.2%. Further, the Luciferase units under setting [1] was 655,040 luciferase units (lumens).
On to PNSSDQRPYCWHYAPRPC [compound 90], for which the Percent inhibition is given as 5.5%. The Luciferase units under setting [2] is on record as 423,326 luciferase units (lumens).
For `CC(C)C[C@H](NC(=O)[C@H](CC(C)C)NC(=O)[C@H](CC(C)C)NC(=O)[C@@H]1CCCN1C(=O)[C@H](CO)NC(=O)[C@H](CC(C)C)NC(=O)[C@H](CCC(=O)O)NC(=O)[C@H](CO)NC(=O)[C@H](CCCNC(=N)N)NC(=O)[C@H](CC(=O)O)NC(=O)[C@H](CCCNC(=N)N)NC(=O)[C@H](CC(=O)O)NC(=O)[C@H](CCC(=O)O)NC(=O)[C@H](CC(C)C)NC(=O)[C@H](CC(N)=O)NC(=O)[C@@H](N)CS)C(=O)N[C@@H](CO)C(=O)N[C@H](C(=O)O)[C@@H](C)O` [compound 113, CNLEDRDRSELSPLLLST], the Percent inhibition is −27.3%. The Luciferase units under setting [2] is 570,553 luciferase units (lumens).
Taken in the same sequence, the figures for “TSLFSSGASQKIQLVNTN [compound 82, TSLFSSGASQKIQLVNTN]” were 61.4% and 173,156 luciferase units (lumens).
Take `CC(C)C[C@H](NC(=O)[C@H](C)NC(=O)[C@H](C)NC(=O)[C@H](Cc1ccccc1)NC(=O)[C@H](Cc1ccccc1)NC(=O)CNC(=O)[C@@H](NC(=O)[C@H](CCC(N)=O)NC(=O)[C@H](CC(C)C)NC(=O)[C@H](CO)NC(=O)[C@H](CC(=O)O)NC(=O)[C@H](CC(N)=O)NC(=O)[C@H](CS)NC(=O)[C@@H](N)CC(N)=O)[C@@H](C)O)C(=O)N[C@@H](Cc1ccccc1)C(=O)N[C@@H](Cc1ccc(O)cc1)C(=O)N[C@@H](C)C(=O)N[C@@H](Cc1c[nH]cn1)C(=O)O` [compound 85, NCNDSLQTGFFAALFYAH]: the Percent inhibition is 74.9%. Under setting [2], the Luciferase units was 112,260 luciferase units (lumens).
In the case of GNNTLLCPTDCFRKHPEA [compound 27], the Percent inhibition is −28.4%. In addition, the Luciferase units under setting [1] is on record as 575,206 luciferase units (lumens).
On to “HINSTALNCNESLNTGWL [compound 7, HINSTALNCNESLNTGWL]”, for which the Percent inhibition came out at 14.9%. Also, the Luciferase units under setting [1] was 381,340 luciferase units (lumens).
In the case of `CC(C)[C@H](NC(=O)CNC(=O)[C@H](CS)NC(=O)[C@@H]1CCCN1C(=O)[C@H](CCCNC(=N)N)NC(=O)[C@@H]1CCCN1)C(=O)N[C@H](C(=O)N1CCC[C@H]1C(=O)N[C@@H](C)C(=O)N[C@@H](CO)C(=O)N[C@@H](CCC(N)=O)C(=O)N[C@H](C(=O)N[C@@H](CS)C(=O)NCC(=O)N1CCC[C@H]1C(=O)N[C@H](C(=O)N[C@@H](Cc1ccc(O)cc1)C(=O)N[C@@H](CS)C(=O)O)C(C)C)C(C)C)C(C)C` [compound 92, PRPCGVVPASQVCGPVYC] (H-PRPCGVVPASQVCGPVYC-OH; N-terminus and C-terminus assumed), the Percent inhibition came to 16.9%. In addition, the Luciferase units under setting [2] is 372,400 luciferase units (lumens).
“CDLEDRDRSELSPLLLST [compound 38, CDLEDRDRSELSPLLLST]”: the Percent inhibition was determined as 23.0%. Moreover, the Luciferase units under setting [1] was 345,110 luciferase units (lumens).
In the case of “HPEATYSRCGSGPWITPR [compound 29, HPEATYSRCGSGPWITPR]”, the Percent inhibition was found to be 33.6%. For the same molecule, under setting [1], the Luciferase units was 297,353 luciferase units (lumens).
In the case of “GPISYANGSGLDERPYCW [compound 13, GPISYANGSGLDERPYCW]”, the Percent inhibition worked out at 31.1%. Moreover, the Luciferase units under setting [1] is 313,323 luciferase units (lumens).
Regarding FYQHKFNSSGCPERLASC [compound 9], the Percent inhibition was −11.8%. For the same molecule, the Luciferase units under setting [1] was 501,126 luciferase units (lumens).
In the case of `CC[C@H](C)[C@H](NC(=O)CNC(=O)[C@H](CS)NC(=O)[C@@H]1CCCN1C(=O)[C@H](CCCNC(=N)N)NC(=O)[C@@H]1CCCN1)C(=O)N[C@H](C(=O)N1CCC[C@H]1C(=O)N[C@@H](C)C(=O)N[C@@H](CCCCN)C(=O)N[C@@H](CO)C(=O)N[C@H](C(=O)N[C@@H](CS)C(=O)NCC(=O)N1CCC[C@H]1C(=O)N[C@H](C(=O)N[C@@H](Cc1ccc(O)cc1)C(=O)N[C@@H](CS)C(=O)O)C(C)C)C(C)C)C(C)C` [compound 16, PRPCGIVPAKSVCGPVYC] (H-PRPCGIVPAKSVCGPVYC-OH; N-terminus and C-terminus assumed), the Percent inhibition is reported as 10.0%. Moreover, under setting [1], the Luciferase units is given as 403,430 luciferase units (lumens).
For SSGCPERMASCRPIDWFA [compound 87], the Percent inhibition was 10.8%. Under setting [2], the Luciferase units is listed as 399,700 luciferase units (lumens).
On to `CSCC[C@H](NC(=O)[C@@H](NC(=O)[C@H](CC(=O)O)NC(=O)[C@@H](NC(=O)[C@@H](N)CCC(=O)O)[C@@H](C)O)C(C)C)C(=O)N[C@@H](CC(C)C)C(=O)N[C@@H](CC(C)C)C(=O)N[C@@H](CC(N)=O)C(=O)N[C@@H](CC(N)=O)C(=O)N[C@H](C(=O)N[C@@H](CCCNC(=N)N)C(=O)N1CCC[C@H]1C(=O)N1CCC[C@H]1C(=O)N[C@@H](CCC(N)=O)C(=O)NCC(=O)N[C@@H](CC(N)=O)C(=O)N[C@@H](Cc1c[nH]c2ccccc12)C(=O)N[C@@H](Cc1ccccc1)C(=O)O)[C@@H](C)O` [compound 98, ETDVMLLNNTRPPQGNWF], for which the Percent inhibition is on record as −4.4%. In addition, under setting [2], the Luciferase units was 467,636 luciferase units (lumens).
In the case of “TTLPALSTGLIHLHQNIV [compound 117, TTLPALSTGLIHLHQNIV]”, the Percent inhibition is on record as 19.8%. Also, the Luciferase units under setting [2] was 359,236 luciferase units (lumens).
For `CC[C@H](C)[C@H](NC(=O)[C@H](Cc1c[nH]cn1)NC(=O)[C@H](Cc1c[nH]c2ccccc12)NC(=O)[C@H](CO)NC(=O)CNC(=O)[C@H](CC(N)=O)NC(=O)[C@@H](NC(=O)[C@H](CC(N)=O)NC(=O)[C@@H](NC(=O)[C@H](CC(C)C)NC(=O)[C@H](CCC(N)=O)NC(=O)[C@@H](NC(=O)[C@H](CCCCN)NC(=O)[C@H](CCC(N)=O)NC(=O)[C@H](CO)NC(=O)[C@H](C)N)[C@@H](C)CC)C(C)C)[C@@H](C)O)C(=O)N[C@@H](CC(N)=O)C(=O)N[C@@H](CCCNC(=N)N)C(=O)O` [compound 83, ASQKIQLVNTNGSWHINR], the Percent inhibition is reported as −15.8%. In addition, the Luciferase units under setting [2] is 518,993 luciferase units (lumens).
As to “RSELSPLLLSTTQWQVLP [compound 39, RSELSPLLLSTTQWQVLP]”, the Percent inhibition came to 11.6%. Under setting [1], the Luciferase units is 400,756 luciferase units (lumens).
Turning to “AKQNIQLINTNGSWHINS [peptide 5, AKQNIQLINTNGSWHINS]”, the Percent inhibition is on record as 89.3% and the “Inhibition … (in words)” value was “inhibitory”. In addition, the Luciferase units under setting [1] is given as 48,000 luciferase units (lumens).
With `CSCC[C@H](N)C(=O)N[C@@H](Cc1ccc(O)cc1)C(=O)N[C@H](C(=O)NCC(=O)NCC(=O)N[C@H](C(=O)N[C@@H](CCC(=O)O)C(=O)N[C@@H](Cc1c[nH]cn1)C(=O)N[C@@H](CCCNC(=N)N)C(=O)N[C@@H](CC(C)C)C(=O)N[C@@H](CC(N)=O)C(=O)N[C@@H](C)C(=O)N[C@@H](C)C(=O)N[C@@H](CS)C(=O)N[C@@H](CC(N)=O)C(=O)N[C@@H](Cc1c[nH]c2ccccc12)C(=O)N[C@H](C(=O)N[C@@H](CCCNC(=N)N)C(=O)O)[C@@H](C)O)C(C)C)C(C)C` [compound 110, MYVGGVEHRLNAACNWTR], the Percent inhibition is recorded as −34.5%. Besides, under setting [2], the Luciferase units was 602,506 luciferase units (lumens).
As for “GRTTAGLVGLLTPGAKQN [peptide 3, GRTTAGLVGLLTPGAKQN]”, the Percent inhibition is given as 0.05%. The Luciferase units under setting [1] is on record as 447,906 luciferase units (lumens).
Taken in the same sequence, the figures for PTDCFRKHPEATYSRCGS [compound 28] were 11.9% and 394,780 luciferase units (lumens).
For “NNTRPPLGNWFGCTWMNS [compound 22, NNTRPPLGNWFGCTWMNS]”, in that order: 45.2% and 245,900 luciferase units (lumens).
With “TYSWGENETDVMLLNNTR [compound 97, TYSWGENETDVMLLNNTR]”, the Percent inhibition was determined as 51.2%. Moreover, the Luciferase units under setting [2] was 218,673 luciferase units (lumens).
Regarding “AGVDGETHTTGRVAGHTT [compound 54, AGVDGETHTTGRVAGHTT]”, the Percent inhibition amounted to 17.9%. Also, the Luciferase units under setting [2] is on record as 372,393 luciferase units (lumens).
For the molecule HRLNAACNWTRGERCNLE [compound 111], the Percent inhibition was −39.2%. The Luciferase units under setting [2] is given as 632,613 luciferase units (lumens).
For “GHTTSGFTSLFSSGASQK [compound 81, GHTTSGFTSLFSSGASQK]”, in that order: −7.3% and 480,623 luciferase units (lumens).
In the case of ITPRCMVDYPYRLWHYPC [compound 31], the Percent inhibition turned out to be 6.4%. Moreover, under setting [1], the Luciferase units is on record as 419,263 luciferase units (lumens).
Taken in the same sequence, the figures for “AGVDAETHVTGGSAGRTT [peptide 1, AGVDAETHVTGGSAGRTT]” were 44.1% and 250,376 luciferase units (lumens).
Consider TKVCGAPPCVIGGVGNNT [compound 25], for which the Percent inhibition worked out at 7.2%. Also, the Luciferase units under setting [1] is recorded as 480,280 luciferase units (lumens).
For “PVYCFTPSPVVVGTTDRS [compound 18, PVYCFTPSPVVVGTTDRS]”, in that order: 2.9% and 435,026 luciferase units (lumens).
